{
  "source": "patent US20230263787A1",
  "about": "“ENHANCED MITOCHONDRIAL RESPONSE WITH THIOZOLIDINEDIONE, PIOGLITAZONE OR ROSIGLITAZONE” (priority 2020, published 2023)",
  "key": {"DRG axons": {"test_system": "DRG axons", "assay": "Lysolecithin exposure of unmyelinated DRG cultures (axon damage)", "type": "cell-based, mouse", "conditions": "0.005 mg/ml lysolecithin for 2 hours"}, "[1]": {"test_system": "cerebellar slices from Shiverer mice", "assay": "Mitochondrial dynamics in dysmyelinated Purkinje cell axons of Shiverer cerebellar slices exposed to lysolecithin", "type": "cell-based, mouse", "conditions": "chronically dysmyelinated axons", "method": "Cerebellar slices were prepared as previously described. Briefly, wild type C57BL/6 and Shiverer mice pups were sacrificed at P10 and cerebellum was placed in ice-cold dissection medium. The sagittal slices were then sectioned into 300 µm thick slices and placed on a membrane insert. Picospritzer III (Parker, US) and a micromanipulator was used to inject mEOS2-Lentivirus (titre 7-8*10^9; aliquots stored at -80° C.) containing 0.025% of Fast-Green (FG, Sigma F7258, UK) in to the Purkinje cell body layer. […]\nLive imaging of mitochondria in Purkinje cell axon was performed at DIV14, directly after removing the lysolecithin. […] Newly transported mitochondria, either appearing from the neuronal cell body to the most proximal 20 micron axonal segment or distal axonal mitochondria appearing in the 20 microns long axonal segment of the most distal photoconverted segment, were counted visually and confirmed using the kymograph. […] For each mitochondrion appearing, the direction of movement was noted, as well as the area of the mitochondrion was measured manually, using the measure function in Fiji, when it first appeared in the axon.\nKymographs of the time lapse images were generated by using the ImageJ plugin KymographClear2.0 [40]. Mitochondrial speed of movement was determined by using the Kymotoolbox ImageJ plugin [80]. […]"}, "DRG neurons [2]": {"test_system": "DRG neurons", "conditions": "17 hours", "description": "Complex IV histochemistry was performed as described below and images were obtained using bright field microscopy. The intensity of the complex IV reactive product was assessed using FIJI and densitometry to analyse complex IV activity at a single cell level."}, "DRG neurons [3]": {"test_system": "DRG neurons", "assay": "Seahorse analysis of mitochondrial respiration in DRG neurons", "conditions": "sodium azide 100 µM for 16 hours", "description": "DRG neuronal cells were cultured on V7 Seahorse 24-well cell culture microplates (Agilent Technologies), in maintenance medium in a 5% CO2 37° C. incubator. […] Plates were incubated for 30 mins at 37° C. (without CO2), before entry into the Seahorse XFe24 Extracellular Flux Analyser (Agilent). Three measurements were taken basally, and three measurements taken after injection of each drug to either inhibit ATP-linked respiration, uncouple respiration or inhibit the respiratory chain. Mitochondrial respiration was calculated by subtracting the first OCR measurement following injection of antimycin/rotenone from the third basal OCR measurement. Normalisation of OCR to relative protein content was achieved following Sulforhodamine B (SRB) staining of all cell wells. Data for each treatment groups was averaged from between 4-5 replicate wells."}, "DRG-OPC co-cultures": {"test_system": "DRG-OPC co-cultures", "assay": "Axon damage after lysolecithin demyelination in microfluidic chambers, drug applied to neuronal cell body chamber", "type": "cell-based, mouse", "conditions": "15 µM SR-18292 added together with pioglitazone to cell body chamber", "method": "Before adding lysolecithin to microfluidic chambers, the inventors used an Axio Observer Z1 inverted motorized microscope (Zeiss, Germany), for live imaging to identify the myelinated axonal segments (video 11, online resource). Images of the myelinated axonal segments were saved with x-y coordinates of the stage position. The effect of live imaging on the axons and myelin was determined by imaging microfluidic chamber containing both mKate2 expressing DRGs and eGFP-expressing OPC where imaged at 20x magnification (Plan-Apochromat 0.8 NA Ph 2 M27 objective, Zeiss, Germany) for 30 minutes before returning the microfluidic chambers to the incubator.\nThe inventors then added lysolecithin for 2 hours before live imaging the previously imaged axonal segments again, using the x-y co-ordinate of the stage position. These live images of axons, pre and post lysolecithin, allowed the assessment of the demyelination of the axonal segments (based on M1-M4-eGFP fluorescence) as well as axonal damage following acute demyelination (based on appearance of mKate2 fluorescence). […] Meanwhile, axons were classed as fragmented when the mKate2 fluorescence was disrupted and not continuous in at least one part of the axon. […] Following exposure to lysolecithin, demyelination was confirmed based on disruption or loss of M1-M4-eGFP fluorescence. […]"}},
  "data": [
    {"compound": "L-α-Lysophosphatidylcholine [lysolecithin]", "values": [
      {"measurement": "damage to DRG axons in unmyelinated cultures", "setting": "DRG axons", "result": "without damaging the DRG axons"},
      {"measurement": "axonal mitochondrial dynamics of newly transported mitochondria", "setting": "[1]", "result": "does not significantly impact"}
    ]},
    {"compound": "[N-]=[N+]=[N-]", "note": "[sodium azide]", "values": [
      {"measurement": "highest dose which did not impact cell viability and resulted in complex IV inhibition", "setting": "DRG neurons [2]", "result": 100, "unit": "µM"},
      {"measurement": "cell viability", "setting": "DRG neurons [3]", "result": "without compromising cell viability"}
    ]},
    {"compound": "Cc1ccc(CN(CC(O)COc2cccc3[nH]ccc23)C(C)(C)C)cc1", "note": "(stereo not drawn) [PGC1α inhibitor, SR-18292]", "values": [
      {"measurement": "effect on the protective effect of pioglitazone on demyelinated axons", "setting": "DRG-OPC co-cultures", "result": "significantly diminished"}
    ]}
  ]
}
